How the values were obtained:
[1] = system: Gram-negative and Gram-positive bacteria commonly colonizing wounds; experiment: Antibacterial synergy K(Syn) of Ag and Cu compounds across bacterial strains (FIG. 3, FIG. 5); type: cell-based
Protocol: FIGS. 3A and 3B show the synergistic effect of CuO NPs and CuSO4 with Ag NPs (A) or AgNO3 (B) to a range of Gram-negative and Gram-positive bacteria commonly colonizing wounds. Bacterial suspension was incubated with Ag NPs, CuO NPs, respective ions or their combinations for 24 h, plated on agarized broth, and MBC was determined.
In order to quantify and compare the synergistic effect between different Ag and Cu compounds and among various bacterial strains, we introduced the term “Coefficient of antimicrobial synergy”, K(Syn), showing the antimicrobial efficiency of Ag compound and Cu compound combinations (mix) compared to the sum of the MBC values of individual compounds and calculated as follows: […]
In order to quantify and compare the synergistic effect between different Ag NPs and Copper compounds among various bacterial strains, we introduced the term “Coefficient of antibacterial synergy”, K(Syn), showing the antimicrobial efficiency of Ag- and copper compound combinations (mix) compared to the sum of the MBC values of individual Ag- and Cu compounds and calculated as follows: […]
Bacterial suspensions were incubated with Ag NPs, CuO NPs, respective ions or their combinations for 24 h, plated on agarized broth, and MBC was determined. […]

P. aeruginosa PAO1 (G−) = experiment: MBC of Ag NPs, Cu compounds and combinations, 24 h incubation, plated on agarized broth; type: cell-based, Pseudomonas aeruginosa
E. coli ESBL (G−) = experiment: as above; type: cell-based, Escherichia coli
[2] = system: S. aureus ATCC 25923 (G+); experiment: as above; type: cell-based, Staphylococcus aureus
[3] = system: S. dysgalacticae DSM 23147 (G+); experiment: as above; type: cell-based
[4] = system: E. faecalis ATCC 29212 (G+); experiment: as above; type: cell-based, Enterococcus faecalis
E. coli K-12 (G−) = experiment: as above; type: cell-based, Escherichia coli

Structure (SMILES) | synergistic effect with Cu compounds compared with Ag NPs ([1]; ionic silver used instead of Ag NPs (FIG. 3B)) | K (Syn) (P. aeruginosa PAO1 (G−); P. aeruginosa PAO1, Cu compound + Ag NPs) | MBC (CuX) in combination (P. aeruginosa PAO1 (G−); P. aeruginosa PAO1, Cu compound in combination with Ag NPs) [µg/mL] | MBC alone (P. aeruginosa PAO1 (G−); P. aeruginosa PAO1, compound alone) [µg/mL] | K (Syn) (E. coli ESBL (G−); Cu compound + Ag NPs) | MBC (CuX) in combination (E. coli ESBL (G−); Cu compound in combination with Ag NPs) [µg/mL] | MBC alone (E. coli ESBL (G−); compound alone) [µg/mL] | K (Syn) ([2]; S. aureus ATCC 25923, Cu compound + Ag NPs) | MBC (CuX) in combination ([2]; S. aureus ATCC 25923, Cu compound in combination with Ag NPs) [µg/mL] | MBC alone ([2]; S. aureus ATCC 25923, compound alone) [µg/mL] | K (Syn) ([3]; S. dysgalacticae DSM 23147, Cu compound + Ag NPs) | MBC (CuX) in combination ([3]; S. dysgalacticae DSM 23147, Cu compound in combination with Ag NPs) [µg/mL] | MBC alone ([3]; S. dysgalacticae DSM 23147, compound alone) [µg/mL] | K (Syn) ([4]; E. faecalis ATCC 29212, Cu compound + Ag NPs) | MBC (CuX) in combination ([4]; E. faecalis ATCC 29212, Cu compound in combination with Ag NPs) [µg/mL] | MBC alone ([4]; E. faecalis ATCC 29212, compound alone) [µg/mL] | K (Syn) (E. coli K-12 (G−); E. coli K-12, Cu compound + Ag NPs) | MBC (CuX) in combination (E. coli K-12 (G−); E. coli K-12, Cu compound in combination with Ag NPs) [µg/mL] | MBC alone (E. coli K-12 (G−); E. coli K-12, compound alone) [µg/mL] | synergy with Ag NPs, K(Syn), ranking among Cu compounds ([1]; all tested bacterial strains (FIG. 3A))
O=[N+]([O-])[O-].[Ag+] [AgNO3, reference compound] | considerably lower | – | – | – | – | – | – | – | – | – | – | – | – | – | – | – | – | – | – | –
O=S(=O)([O-])[O-].[Cu+2] [CuSO4] | – | 2.783 ± 0.687 | 20 ± 6.85 | 720 ± 178.9 | 4.727 ± 0.63 | 25 ± 0 | 200 ± 0 | 3.659 ± 1.083 | 16.25 ± 8.39 | 90 ± 22.36 | 3.909 ± 0.832 | 12.5 ± 0 | 133.3 ± 57.7 | 4.254 ± 0.977 | 20.83 ± 7.22 | 200 ± 0 | 5.055 ± 0.383 | 22.5 ± 16.3 | 217.6 ± 72.8 | highest

— US20240041047A1, “ENHANCED ANTIMICROBIAL EFFICACY (SYNERGY) OF SILVER AND COPPER COMPOUNDS AND MEDICAL USE OF THEIR COMBINATIONS” (Nanordica Medical OÜ, priority 2021, published 2024)
